Data as given in ChEMBL document CHEMBL1146241, “Novel inhibitor for fibroblast growth factor receptor tyrosine kinase” (Bioorg Med Chem Lett, 2007).

Assays:
[1] = target: T1, Fibroblast growth factor receptor 1 (Homo sapiens, UniProt P11362); details: HUVEC
Target sequence in this assay (P11362 22-822 limits assumed): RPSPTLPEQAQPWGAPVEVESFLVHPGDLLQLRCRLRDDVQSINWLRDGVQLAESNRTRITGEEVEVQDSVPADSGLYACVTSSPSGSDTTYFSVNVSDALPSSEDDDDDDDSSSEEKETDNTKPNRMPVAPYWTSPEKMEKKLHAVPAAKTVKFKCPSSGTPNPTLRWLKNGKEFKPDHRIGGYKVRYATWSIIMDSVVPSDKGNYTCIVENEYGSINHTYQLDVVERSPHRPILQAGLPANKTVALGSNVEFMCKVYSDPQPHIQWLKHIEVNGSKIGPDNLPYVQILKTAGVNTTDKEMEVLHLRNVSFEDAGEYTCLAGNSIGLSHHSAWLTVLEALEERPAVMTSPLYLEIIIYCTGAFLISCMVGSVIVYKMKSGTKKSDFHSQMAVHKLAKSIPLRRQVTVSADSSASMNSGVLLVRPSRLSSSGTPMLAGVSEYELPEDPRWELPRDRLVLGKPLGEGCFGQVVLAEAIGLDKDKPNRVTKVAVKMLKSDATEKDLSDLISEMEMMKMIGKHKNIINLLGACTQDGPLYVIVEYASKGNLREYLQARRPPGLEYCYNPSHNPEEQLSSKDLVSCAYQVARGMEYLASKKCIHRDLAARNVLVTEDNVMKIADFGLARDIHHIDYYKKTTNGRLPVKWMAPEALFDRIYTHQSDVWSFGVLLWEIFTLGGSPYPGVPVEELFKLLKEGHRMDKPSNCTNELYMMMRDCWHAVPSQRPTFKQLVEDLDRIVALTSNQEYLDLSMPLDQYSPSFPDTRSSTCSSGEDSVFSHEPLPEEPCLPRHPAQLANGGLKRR
Description: Inhibition of rhFGF2-induced cellular proliferation of HUVEC

[2] = target: T1, Fibroblast growth factor receptor 1; experiment: Inhibition of human FGFR1 kinase expressed in insect cell by HTRF detection method
Target sequence in this assay (P11362 whole entry): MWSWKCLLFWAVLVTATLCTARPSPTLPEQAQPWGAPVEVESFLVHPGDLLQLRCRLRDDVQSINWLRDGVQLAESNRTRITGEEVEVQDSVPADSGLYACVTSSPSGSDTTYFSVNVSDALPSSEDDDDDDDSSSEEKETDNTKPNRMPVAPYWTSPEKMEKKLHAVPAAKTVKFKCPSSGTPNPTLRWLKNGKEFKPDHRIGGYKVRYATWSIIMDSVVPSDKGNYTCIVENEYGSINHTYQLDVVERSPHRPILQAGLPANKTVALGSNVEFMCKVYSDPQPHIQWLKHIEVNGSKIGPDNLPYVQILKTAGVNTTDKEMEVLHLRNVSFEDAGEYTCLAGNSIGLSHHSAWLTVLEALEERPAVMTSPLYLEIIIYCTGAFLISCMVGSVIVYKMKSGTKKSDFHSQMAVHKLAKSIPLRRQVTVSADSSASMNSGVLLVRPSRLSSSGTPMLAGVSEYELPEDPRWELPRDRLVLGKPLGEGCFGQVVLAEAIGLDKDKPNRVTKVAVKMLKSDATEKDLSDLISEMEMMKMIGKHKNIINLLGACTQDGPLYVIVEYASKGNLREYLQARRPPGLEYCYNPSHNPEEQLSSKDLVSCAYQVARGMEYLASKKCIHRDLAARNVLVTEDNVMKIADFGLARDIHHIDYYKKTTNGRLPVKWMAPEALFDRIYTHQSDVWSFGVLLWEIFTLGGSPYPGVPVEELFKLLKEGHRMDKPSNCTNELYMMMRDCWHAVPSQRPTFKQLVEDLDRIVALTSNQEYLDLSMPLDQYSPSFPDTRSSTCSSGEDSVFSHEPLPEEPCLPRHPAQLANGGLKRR

SMILES	MEC [1] [µM]	IC50 [2] [µM]
Cc1[nH]c(/C=C2\C(=O)Nc3ccccc32)c(C)c1CCC(=O)O	10	
COc1cccc(-c2ccc3c(c2)NC(=O)/C3=C\c2[nH]c(C)c(CCC(=O)O)c2C)c1	0.4	1.2
COc1cc(OC)cc(-c2ccc3c(c2)NC(=O)/C3=C\c2[nH]c(C)c(CCC(=O)O)c2C)c1	0.4	0.4
